Results taken from patent US5208032A, “Increasing the growth of turkeys using implant of 19-nortestosterone” (Rutgers, The State University of New Jersey, priority 1992, dated 1993).

Tests used:
[1] = Comparison of effect of 19-nortestosterone and 5-alpha-DHT on growth in castrated male White Leghorn chickens (Study V, Table III); assay type: in vivo; conditions: for Abdominal Adipose / Final Shank-toe Length / Right Breast Muscle: 6 weeks; for Abdominal Adipose Change / Final 6-week Body Wt. Change / Final Shank-toe Length Change / Right Breast Muscle Change: given unsigned (decrease vs cholesterol); for Final 6-week Body Wt.: minus comb + wattle weight
Method: The single comb White Leghorn strain (Dekalb XL) of chicken (Avian Services, Frenchtown, N.J.) was used in all studies. Chicks were obtained on the day following hatch and were then maintained in a well ventilated, temperature- and humidity-controlled animal room. Chicks were housed in temperature-controlled (access to small brood chambers--32° to 35° C.), wire-floored, 5-tier brooder batteries (measuring 0.74 W×1.55 L×0.27 H m per tier) until termination of respective studies. A 12 hour light:12 hour dark photoperiod was maintained at all times within the animal room. Feed and water were available ad libitum, with a standard commercial diet (Agway; Bordentown, N.J.), chick starter mash, fed to chicks 1 to 42 days of age, and then from 43 to 84 days, grower mash was provided (manufacturer statement on ration compositions are shown in Table 2).
Excluding Study II, chicks were either castrated (Quigley, 1967) or sham-operated at 13 days of age. Prior to castration, cockerels were deprived of feed and water for 24 hours in order that the intestines may become empty and thus permit better vision into the body cavity and accessibility to testes. Birds were restrained by fastening the wings and legs with leather straps so that sufficient tension was applied to hold the bird well stretched out in a lateral recumbency (on its left side). Next, an approximate 1 inch incision was made midway between the last two ribs and a small rib spreader inserted to hold the ribs about 1/2 inch apart.
Forceps were used to remove both testicles, with the lower or left testicle removed first. The forceps were carefully worked over the testicle and so manipulated as to enclose the entire organ. It was then drawn out with a slight twisting motion. At this step, care was taken not to rupture any of the primary blood vessels. When the rib spreader was removed, and the tension on the bird released (i.e., leg and wing straps removed), the skin and thigh muscles slipped back over the incision thus affording a natural protection. No special care was necessary for surgically manipulated birds other than to puncture "air pockets" which developed under the skin due to air escaping from within the abdominal cavity before the incision between the ribs was healed.
In all studies, chicks were rank-ordered by weight, wing-banded and distributed into treatment groups of equal body weights at 14 days of age. Excluding Study I, e.g., in which male, female and castrate male comparisons were made, all control groups were implanted with 1.0-cm length cholesterol-filled Silastic polysiloxane implants (i.e., steroid surface exposure of 1.0-cm; actual length was 2.0-cm with 1/2 cm wood dowel plugs placed at each end of implant). The remaining treatment groups consisted of chicks (male, female or castrated male) implanted with either testosterone-, 5-alpha-DHT-, 5-beta-DHT-, estradiol-17-beta-, or 19-nortestosterone-filled Silastic polysiloxane implants with steriod surface exposures of either 0.3, 1.0 or 3.0 cm in length. Steroid implants were prepared by manually packing respective crystalline steroids (Steraloids; Wilton, N.H.) into Silastic Medical Grade tubing (1.57 mm i.d.; Dow Corning) (Smith et al., 1977). The amounts of steroid contained in the implants were as follows (mean±SEM of 20 randomly chosen implants, 5 for each steroid): 2.6±0.2 mg (0.3-cm), 8.9±0.4 mg (1.0-cm), and 29.2±0.7 mg 3.0-cm). At the time of group assignment, implants were placed in the subcutaneous (S.C.) layer of skin behind the neck. Supplemental steroid implants (containing doses of steroids equivalent to those of the initial implants) were implanted at 6 and 10 weeks of age, without removal of prior implants, to ensure adequate androgen replacement with increasing growth. Cage floors and fecal collection trays were checked for 2 consecutive days following each implantation session to ensure completeness of procedure. […]

[2] = Growth promotion and feed efficiency in turkeys (summary in words); assay type: in vivo
Method: A presently preferred dosage in the form of such a subcutaneous implant is at least about 20 mg, with a dosage of about 50 mg being highly suitable. It has been found suitable to administer the 19-nortestosterone subcutaneously, for example, below the ear of the turkey, using conventional implanting devices. The dosage can be administered in the form of an implant device which releases the 19-nortestosterone slowly in a desired constant rate, over a period of time such a about 21 days or more. Desirably, the implant can be in the form of a capsule enveloping the 19-nortestosterone which provides the desired slow, constant release or in the form of a polymer mass pellet having encapsulated or dispersed therein 19-nortestosterone so as to permit by diffusion or slow dissolution release subcutaneously and subsequent systemic absorption. It has been found suitably to use silicone rubber as a polymeric encapsulating material.
It is a natural compound.

In the case of `C[C@]12CC[C@H]3[C@@H](CCC4=CC(=O)CC[C@@H]43)[C@@H]1CC[C@@H]2O` [19-Nortestosterone, 19-nortestosterone], the “Abdominal Adipose” value ([1]; 0.3-cm implant) is reported as 1.26 ± 0.19 g, the “Final Shank-toe Length” value ([1]; 0.3-cm implant) is reported as 10.8 ± 0.13 cm and the “Right Breast Muscle” value ([1]; 0.3-cm implant) is reported as 13.9 ± 1.1 g. The “Abdominal Adipose Change” value ([1]; 0.3-cm implant) was 58%, the “Final 6-week Body Wt. Change” value ([1]; 0.3-cm implant) was 16.9% and the “Final Shank-toe Length Change” value ([1]; 0.3-cm implant) was 9.2%. For the same compound, the “Right Breast Muscle Change” value ([1]; 0.3-cm implant) was 29.8%, the “Final 6-week Body Wt.” value ([1]; 0.3-cm implant) was 384 ± 18 g and the “Abdominal Adipose” value ([1]; 1.0-cm implant) was 0.26 ± 0.08 g. For the same compound, the “Final Shank-toe Length” value ([1]; 1.0-cm implant) was 10.2 ± 0.12 cm, the “Right Breast Muscle” value ([1]; 1.0-cm implant) was 13.2 ± 0.87 g and the “Abdominal Adipose Change” value ([1]; 1.0-cm implant) was 91%. For the same compound, the “Final 6-week Body Wt. Change” value ([1]; 1.0-cm implant) was 24.0%, the “Final Shank-toe Length Change” value ([1]; 1.0-cm implant) was 14.3% and the “Right Breast Muscle Change” value ([1]; 1.0-cm implant) was 33.3%. For the same compound, the “Final 6-week Body Wt.” value ([1]; 1.0-cm implant) was 351 ± 13 g, the “Abdominal Adipose” value ([1]; 3.0-cm implant) was 0.58 ± 0.12 g and the “Final Shank-toe Length” value ([1]; 3.0-cm implant) was 9.8 ± 0.17 cm. For the same compound, the “Right Breast Muscle” value ([1]; 3.0-cm implant) was 12.0 ± 0.96 g, the “Abdominal Adipose Change” value ([1]; 3.0-cm implant) was 81% and the “Final 6-week Body Wt. Change” value ([1]; 3.0-cm implant) was 24.5%. For the same compound, the “Final Shank-toe Length Change” value ([1]; 3.0-cm implant) was 17.6%, the “Right Breast Muscle Change” value ([1]; 3.0-cm implant) was 39.4% and the “Final 6-week Body Wt.” value ([1]; 3.0-cm implant) was 349 ± 19 g. For the same compound, the “results compared with testosterone in turkeys” value ([2]; Table IV and Table V) was “unexpectedly superior advantages”, the “relative amount of fat mass” value ([2]; turkey carcass) was “a lower relative amount of fat mass” and the “growth rate and feed efficiency” value ([2]; turkeys) was “an increase in growth rate and feed efficiency”. For the same compound, the muscle mass ([2]; turkeys) was “an increase in muscle mass” and the “results in turkeys compared with 19-nortestosterone in chickens” value ([2]; vs chickens (Table III)) was “unexpectedly superior results”.

In the case of `C[C@]12CCC(=O)C[C@@H]1CC[C@@H]1[C@@H]2CC[C@]2(C)[C@@H](O)CC[C@@H]12` [5-alpha-DHT, 5-alpha-dihydrotestosterone], the “Abdominal Adipose” value ([1]; 1.0-cm implant) is reported as 2.05 ± 0.12 g, the “Final Shank-toe Length” value ([1]; 1.0-cm implant) is reported as 11.4 ± 0.07 cm and the “Right Breast Muscle” value ([1]; 1.0-cm implant) is reported as 16.3 ± 0.67 g. For the same compound, the “Abdominal Adipose Change” value ([1]; 1.0-cm implant) was 33%, the “Final 6-week Body Wt. Change” value ([1]; 1.0-cm implant) was 8.6% and the “Final Shank-toe Length Change” value ([1]; 1.0-cm implant) was 4.2%. The “Right Breast Muscle Change” value ([1]; 1.0-cm implant) was 17.7%, the “Final 6-week Body Wt.” value ([1]; 1.0-cm implant) was 422 ± 10 g and the “results when used instead of 19-nortestosterone” value ([2]; turkeys) was “unexpectedly beneficial results”.
